These are literature values, as cited in the CATMoS acute toxicity set (Mansouri et al. 2021).

Molecules are shown by their SMILES.

Broadly, the LD50 is the dose at which mortality reaches 50%.

The data set in a line: rat acute oral toxicity. To be noted: in vivo.
On to `O=C1CN(N=Cc2ccc(-c3ccc([N+](=O)[O-])cc3)o2)C(=O)N1`, for which the LD50 is 7430 mg/kg.

Turning to `CCN(CC)c1ccc(C=O)cc1`, the LD50 was 6400 mg/kg. In the case of `CCCCOC(=O)CC(SP(=O)(OC)OC)C(=O)OCCCC` (stereo not given), the LD50 was 515 mg/kg.

With `Nc1c(/N=N/c2ccc([N+](=O)[O-])cc2)c(S(=O)(=O)O)cc2cc(S(=O)(=O)O)c(/N=N/c3ccc(-c4ccc(/N=N/c5ccc(O)cc5)cc4)cc3)c(O)c12`, the LD50 was 14700 mg/kg. With `CCOC(=O)C=[N+]=[N-]`, the LD50 is 400 mg/kg. Take `CCOC(=O)C1(c2ccccc2)CCN(CCOCc2ccccc2)CC1`: the LD50 was 284 mg/kg. Consider `ClC(Cl)Cc1ccccc1`, for which the LD50 is 5500 mg/kg. In the case of `CCCOC=O`, the LD50 was 3980 mg/kg. Consider `OC(Nc1nccs1)C(Cl)(Cl)Cl` (stereo not given), for which the LD50 is 2500 mg/kg. For `Cc1ccc(/N=C/NSN(Cc2ccccc2)Cc2ccccc2)c(C)c1`, the LD50 was 1050 mg/kg. On to `COP(=O)(Oc1cc(Cl)c(Br)cc1Cl)c1ccccc1` (stereo not given), for which the LD50 was 118 mg/kg. As for `CCCCC[C@H](O)/C=C/[C@H]1[C@H](O)CC(=O)[C@@H]1C/C=C\CCCC(=O)O`, the LD50 was 500 mg/kg. With `ClC(Cl)=C(c1ccc(Cl)cc1)c1ccccc1Cl`, the LD50 was 880 mg/kg. As for `CCCCOCCOCCOC(=O)c1ccccc1C(=O)OCCOCCOCCCC`, the LD50 was 9700 mg/kg. `OCC(O)C1CC=CCC1` (stereo not given): the LD50 was 1070 mg/kg. For the molecule `CCCCCCCCCCCC(=O)OC1=C(c2c(C)cc(C)cc2C)C(=O)c2ccccc21`, the median lethal dose (LD50) was 9500 mg/kg. On to `Nc1ccc2cc(S(=O)(=O)O)ccc2c1CS(=O)(=O)O`, for which the LD50 is 9200 mg/kg.

For `CC(C)(C(=O)c1cccnc1)c1cccnc1`, the LD50 is 521 mg/kg. On to `O=C(O)CCCc1ccc(N(CCCl)CCCl)cc1`, for which the LD50 was 76 mg/kg. Consider `C/C=N/O`, for which the LD50 is 740 mg/kg.

For `O=[N+]([O-])c1c(Cl)cc(Cl)c([N+](=O)[O-])c1Cl`, the LD50 is 500 mg/kg. Consider `C=CCC(CC=C)C(=O)O`, for which the LD50 was 570 mg/kg. Take `CCCCC[Si](OCC)(OCC)OCC`: the LD50 is 20000 mg/kg. With `COc1cc(C(Cl)(Cl)Cl)cc(Cl)n1`, the LD50 is 1500 mg/kg.

Turning to `OC(Cn1cncn1)(Cn1cncn1)c1ccc(F)cc1F`, the LD50 is 1270 mg/kg. As to `COc1ccc(/C=C/C(=O)Nc2ccccc2C(=O)O)cc1OC`, the median lethal dose (LD50) is 1100 mg/kg. For the molecule `CCn1cc(C(O)CN(C)C)c2ccccc21` (stereo not given), the LD50 was 80 mg/kg. Regarding `CC[n+]1c(C=C2Sc3ccccc3N2C)ccc2ccccc21`, the LD50 was 2240 mg/kg. For `O=C1CN=C(c2ccccc2F)c2cc(Cl)ccc2N1CC1CC1`, the LD50 was 10100 mg/kg. As for `CCOC1CCC=CO1` (stereo not given), the LD50 is 6160 mg/kg. On to `O=C(NCCO)c1ccccc1O`, for which the LD50 was 4300 mg/kg. Regarding `Cc1ncc(CO)c(CO)c1O`, the LD50 is 4000 mg/kg. On to `CC(=O)Nc1cccc2c3ccccc3n(C)c12`, for which the LD50 is 3120 mg/kg. Take `Cc1ccc(Oc2cc(SCC(=O)NN)ncn2)cc1`: the LD50 is 460 mg/kg.

Regarding `ClCc1cccc2ccccc12`, the LD50 was 890 mg/kg.

On to `O=C(COc1ccc(Cl)cc1)N1CCN(Cc2ccc3c(c2)OCO3)CC1`, for which the LD50 is 4480 mg/kg. In the case of `CC(C)c1c(C(=O)c2cccnc2)c2ccccc2n1C`, the LD50 is 2400 mg/kg. Consider `COc1ccccc1OCCOC(=O)c1ccccc1OC(C)=O`, for which the LD50 was 2930 mg/kg. Take `CCN(CC)C(=S)S`: the LD50 was 1000 mg/kg. On to `Nc1ccc(O)c2c1C(=O)c1c(O)cc(-c3ccc(O)cc3)c(N)c1C2=O`, for which the LD50 is 6380 mg/kg. On to `Clc1ccc2ncoc2c1`, for which the LD50 was 791 mg/kg.

Take `CC(Cl)C(=O)O` (stereo not given): the LD50 is 800 mg/kg. Regarding `C=CCOC(=O)Cc1ccccc1`, the LD50 was 650 mg/kg. For `C=CCOC(=O)Nc1ccc(NCc2ccc(F)cc2)nc1N`, the LD50 is 1030 mg/kg. Turning to `CCCCCCCCCCCCCCCCCCN(C(=O)CC(C(=O)O)S(=O)(=O)O)C(CC(=O)O)C(=O)O` (stereo not given), the 50% lethal dose (LD50) is 6500 mg/kg. On to `CCCCCCCCCCCCSC#N`, for which the LD50 is 1250 mg/kg. As for `COc1ccc2c(c1)c(CC(=O)Oc1cccc(C)c1)c(C)n2C(=O)c1ccc(Cl)cc1`, the LD50 is 98 mg/kg. Take `CCCCOCCOCCOC(=O)CCCCC(=O)OCCOCCOCCCC`: the LD50 is 6000 mg/kg. For `CC1(C)CC(=O)CC(C)(C)N1[O]`, the LD50 is 1460 mg/kg. Regarding `O=C1CCCCCC=CCCCCCCCCO1`, the LD50 is 339 mg/kg. Take `O=C(/C=C/C=C/c1ccc2c(c1)OCO2)N1CCCCC1`: the 50% lethal dose (LD50) was 514 mg/kg.

For `CC(=O)Oc1cccc(Oc2ccc(C(F)(F)F)cc2Cl)c1`, the LD50 is 2500 mg/kg. Turning to `OCCN(CCO)c1nc(N2CCCCC2)c2nc(N(CCO)CCO)nc(N3CCCCC3)c2n1`, the LD50 is 8400 mg/kg. With `COc1ccccc1C1C(Cl)C(=O)N1c1ccccc1C(=O)O` (stereo not given), the LD50 was 2400 mg/kg. Turning to `O=c1[nH]c2[nH]cnc(=O)c2[nH]1`, the LD50 was 1760 mg/kg. As to `COc1cc(CC(C)N)cc2c1OCO2` (stereo not given), the LD50 is 170 mg/kg. `Fc1ccc(C(c2ccc(F)cc2)N2CCN(C/C=C/c3ccccc3)CC2)cc1`: the LD50 is 503 mg/kg. Turning to `CCNc1nc(NCC)nc(SC)n1`, the LD50 is 750 mg/kg.

In the case of `CC(C)CC(C)OC(=O)CC(C(=O)OC(C)CC(C)C)S(=O)(=O)O` (stereo not given), the LD50 is 1750 mg/kg.

Regarding `COCC(=O)NP(=O)(OC)SC` (stereo not given), the LD50 is 200 mg/kg.
